From the supplement of paper PMC8671470

Tests used:
Details in all cases: 72 h
BV-173 [1] = system: BV-173
In short: (§1)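 Fifteen myeloid leukaemia cell lines were seeded in RPMI 1640 at a density titrated to the linear growth range. Each line went into 384-well plates with compounds acoustically pre-printed at five tenfold doses from 1 to 10,000 nM, in duplicate, and was incubated for 72 h at 37 °C with 5% CO2. Luminescent ATP viability was normalised to vehicle and to a positive control at 10 µM. The IC50 came from four-parameter log-logistic dose–response fits.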

HEL [2] = system: HEL
In short: as §1

HL-60 [3] = system: HL-60
In short: as §1

K-562 [4] = system: K-562
In short: as §1

KCL-22 [5] = system: KCL-22
In short: as §1

KG-1 = system: KG-1
In short: as §1

KU-812 [6] = system: KU-812
In short: as §1

LAMA-84 [7] = system: LAMA-84
In short: as §1

ML-2 [8] = system: ML-2
In short: as §1

MOLM-13 = system: MOLM-13
In short: as §1

MV4-11 = system: MV4-11
In short: as §1

Mono-Mac-6 [9] = system: Mono-Mac-6
In short: as §1

NOMO-1 [10] = system: NOMO-1
In short: as §1

SHI-1 [11] = system: SHI-1
In short: as §1

THP-1 = system: THP-1
In short: as §1

HL-60 [12] = assay: cell viability (% survival relative to DMSO control); higher = less cytotoxic
In short: (§2)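 A rescreen of the full library used HL-60 cells in RPMI 1640 with 10% FBS on 384-well plates, run in duplicate at five tenfold concentrations (1–10,000 nM). Each screen included DMSO or 100 nM of one of three metabolic inhibitors and ran 72 h at 37 °C, 5% CO2. CellTiter-Glo viability was scaled between DMSO and 10 μM proteasome-inhibitor wells. Any area under the curve comes from four-parameter log-logistic fits with drc and PharmacoGx.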

BV-173 [13] = assay: cell viability (% survival relative to DMSO control, bortezomib = 0%); higher = less cytotoxic
In short: (§3)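 Seeding density for each of the 10 AML and 5 CML cell lines was titrated to the linear growth range. Cells went into 384-well plates pre-printed in duplicate with compounds at 1, 10, 100, 1000 or 10000 nM and were held for 72 h at 37 °C with 5% CO2. CellTiter-Glo luminescence then provided the readout. Percent survival is expressed relative to vehicle at 100% and a 10 µM positive control at 0%, averaged over duplicates.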

HEL [14] = assay: as above
In short: as §3

HL-60 [15] = assay: as above
In short: as §3

K-562 [16] = assay: as above
In short: as §3

KCL-22 [17] = assay: as above
In short: as §3

KU-812 [18] = assay: as above
In short: as §3

LAMA-84 [19] = assay: as above
In short: as §3

ML-2 [20] = assay: as above
In short: as §3

Mono-Mac-6 [21] = assay: as above
In short: as §3

NOMO-1 [22] = assay: as above
In short: as §3

SHI-1 [23] = assay: as above
In short: as §3

HL-60 [24] = assay: area under dose-response curve (viability, 1 nM-10 uM) (fraction (0-1)); higher = more sensitive
In short: as §2

NCCCC(N)(C(=O)O)C(F)F (stereo not drawn) [Difluoromethylornithine]
Details	IC50 (cell viability) [nM]
BV-173 [1]	> 10000
HEL [2]	> 10000
HL-60 [3]	> 10000
K-562 [4]	> 10000
KCL-22 [5]	> 10000
KG-1	> 10000
KU-812 [6]	> 10000
LAMA-84 [7]	> 10000
ML-2 [8]	> 10000
MOLM-13	> 10000
MV4-11	> 10000
Mono-Mac-6 [9]	> 10000
NOMO-1 [10]	> 10000
SHI-1 [11]	> 10000
THP-1	> 10000

cell viability [%], HL-60 [12]
Details	0.001 µM	0.01 µM	0.1 µM	1 µM	10 µM
co-treatment: AZD3965 100 nM	105	100.5	100	93.5	96.8
co-treatment: DMSO vehicle	103	97.01	104	101	103
co-treatment: GSK2194069 100 nM	101	98.8	104	95.6	101
co-treatment: pictilisib 100 nM	100	92.3	97.2	92.6	94.6

Details	area under dose-response curve, co-treatment: AZD3965 100 nM	area under dose-response curve, co-treatment: DMSO vehicle	area under dose-response curve, co-treatment: GSK2194069 100 nM	area under dose-response curve, co-treatment: pictilisib 100 nM	cell viability, 1 nM [%]	cell viability, 10 nM [%]	cell viability, 100 nM [%]	cell viability, 1000 nM [%]	cell viability, 10000 nM [%]
BV-173 [13]	–	–	–	–	97.1	91.2	96.8	95.2	105
HEL [14]	–	–	–	–	100	96.8	90.1	104	95.9
HL-60 [15]	–	–	–	–	93.6	123	98.7	88.8	99.5
HL-60 [24]	< 0.0301	< 0.0301	< 0.0301	< 0.0301	–	–	–	–	–
K-562 [16]	–	–	–	–	99.3	104	97	107	126
KCL-22 [17]	–	–	–	–	111	84.4	88.1	95	101
KU-812 [18]	–	–	–	–	116	96.2	83.1	99.3	105
LAMA-84 [19]	–	–	–	–	107	99.2	91.8	102	110
ML-2 [20]	–	–	–	–	93.5	79.1	93.4	92.1	96.5
Mono-Mac-6 [21]	–	–	–	–	98.2	92.7	94.2	98.5	93.3
NOMO-1 [22]	–	–	–	–	99.5	91.5	102	95.6	99.7
SHI-1 [23]	–	–	–	–	100	100	90.9	104	106

N#CC(C#N)=NNc1ccc(OC(F)(F)F)cc1 [FCCP]
Details	IC50 (cell viability) [nM]
BV-173 [1]	2050
HEL [2]	1960
HL-60 [3]	2660
K-562 [4]	1730
KCL-22 [5]	1820
KG-1	2340
KU-812 [6]	1390
LAMA-84 [7]	2010
ML-2 [8]	2090
MOLM-13	2110
MV4-11	2440
Mono-Mac-6 [9]	2380
NOMO-1 [10]	3010
SHI-1 [11]	4020
THP-1	3770

cell viability [%], HL-60 [12]
Details	0.001 µM	0.01 µM	0.1 µM	1 µM	10 µM
co-treatment: AZD3965 100 nM	101	102	82.8	110	8.55
co-treatment: DMSO vehicle	99.6	94.6	99.9	104	10.3
co-treatment: GSK2194069 100 nM	97.2	102	80.2	102.3	13.8
co-treatment: pictilisib 100 nM	98.3	98.5	94.6	104	9.69

Details	area under dose-response curve, co-treatment: AZD3965 100 nM	area under dose-response curve, co-treatment: DMSO vehicle	area under dose-response curve, co-treatment: GSK2194069 100 nM	area under dose-response curve, co-treatment: pictilisib 100 nM	cell viability, 1 nM [%]	cell viability, 10 nM [%]	cell viability, 100 nM [%]	cell viability, 1000 nM [%]	cell viability, 10000 nM [%]
BV-173 [13]	–	–	–	–	119	94.9	96.7	82	-0.482
HEL [14]	–	–	–	–	120	94.1	92.7	79.9	1.52
HL-60 [15]	–	–	–	–	88.2	92.4	109	88.5	0.501
HL-60 [24]	0.104	0.106	0.0946	0.107	–	–	–	–	–
K-562 [16]	–	–	–	–	109	93.4	92.1	74	1.97
KCL-22 [17]	–	–	–	–	110	83.6	85.8	68.3	4.51
KU-812 [18]	–	–	–	–	108	98	92.4	65.7	0.082
LAMA-84 [19]	–	–	–	–	100	97.6	94.2	79.1	0.398
ML-2 [20]	–	–	–	–	104	96.5	105	82.3	0.124
Mono-Mac-6 [21]	–	–	–	–	100	92	96.1	82.8	3.03
NOMO-1 [22]	–	–	–	–	100	105	102	93.5	4.3
SHI-1 [23]	–	–	–	–	94.6	103	101	91.5	35.1
